Data as given in patent publication US20240209028A1, “CNP COMPOUNDS” (priority 2022, published 2024).
Starred links: 1 amine or outer side, 2 acyl side, 3 side chain; linkers in the order of their positions; H or OH if unused. Positions of bridges follow the written chain, without caps; N, C: chain ends. Residues, ends and D or L forms follow the SMILES beside them. *: point of attachment. C18 diacid = O=C(O)CCCCCCCCCCCCCCCCC(=O)*; γGlu = O=C(O)[C@H](CCC(=O)[*:2])N[*:1]; AEEA = NCCOCCOCC(=O)O

Molecular target: T1, human natriuretic peptide receptor 2 (hNPR2) (Homo sapiens, UniProt P20594)
T1 construct: expressed in transfected cells; host or cells: HEK293 (ATCC CRL-1573), clone 35, co-transfected with pGloSensor-42F
T1 sequence (P20594 23-1047): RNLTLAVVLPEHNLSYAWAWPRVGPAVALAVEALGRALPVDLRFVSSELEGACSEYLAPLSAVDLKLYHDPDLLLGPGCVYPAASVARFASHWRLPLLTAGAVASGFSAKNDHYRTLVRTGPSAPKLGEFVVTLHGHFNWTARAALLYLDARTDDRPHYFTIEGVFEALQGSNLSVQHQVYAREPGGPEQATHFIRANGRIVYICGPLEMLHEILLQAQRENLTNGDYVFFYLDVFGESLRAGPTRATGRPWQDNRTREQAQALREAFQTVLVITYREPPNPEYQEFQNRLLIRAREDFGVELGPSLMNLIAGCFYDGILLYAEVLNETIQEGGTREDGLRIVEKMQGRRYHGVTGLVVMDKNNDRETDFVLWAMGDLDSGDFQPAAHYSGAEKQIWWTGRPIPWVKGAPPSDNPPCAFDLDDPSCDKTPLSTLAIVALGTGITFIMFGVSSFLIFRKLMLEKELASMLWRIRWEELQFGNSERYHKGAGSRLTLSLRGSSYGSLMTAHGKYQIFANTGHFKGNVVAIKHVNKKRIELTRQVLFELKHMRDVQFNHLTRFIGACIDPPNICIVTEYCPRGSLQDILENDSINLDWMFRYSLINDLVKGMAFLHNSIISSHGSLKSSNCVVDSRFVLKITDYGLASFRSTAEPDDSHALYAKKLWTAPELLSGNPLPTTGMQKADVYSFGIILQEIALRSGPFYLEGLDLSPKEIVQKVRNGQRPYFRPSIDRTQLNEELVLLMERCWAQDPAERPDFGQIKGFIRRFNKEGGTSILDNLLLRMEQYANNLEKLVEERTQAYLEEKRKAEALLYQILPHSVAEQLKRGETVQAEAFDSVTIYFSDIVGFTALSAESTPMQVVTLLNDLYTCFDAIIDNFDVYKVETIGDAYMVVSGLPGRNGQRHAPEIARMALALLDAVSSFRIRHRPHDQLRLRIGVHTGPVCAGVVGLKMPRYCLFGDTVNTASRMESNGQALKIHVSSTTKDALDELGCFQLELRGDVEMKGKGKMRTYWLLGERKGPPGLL
Test: In vitro hNPR2 activity assay (cGMP GloSensor reporter, HEK293)
Assay type: cell-based
Settings: for hNPR2 0% HSA. [EC50% rel CNP]: potency relative to CNP22 (0065); for EC50: 0% HSA, HEK293-hNPR2/GloSensor cells
How it was run: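 Potency is the EC50 from a four-parameter logistic fit, also expressed relative to the in-plate CNP22 control (×100), with at least two replicates. Compounds (ten concentrations, […], HSA-free diluent with 1% OVA, 0.01% Tween20) were incubated 30 min at 37 °C on HEK293 cells co-expressing hNPR2 and a GloSensor cGMP luciferase. Luminescence detected with Bright-Glo.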

SMILES | hNPR2 0% HSA. [EC50% rel CNP] | EC50
CC[C@H](C)[C@@H]1NC(=O)[C@H](CCCNC(=N)N)NC(=O)[C@H](CC(=O)O)NC(=O)[C@H](CC(C)C)NC(=O)[C@@H]2CCCN2C(=O)[C@H](CC(C)C)NC(=O)CNC(=O)[C@H](Cc2ccccc2)NC(=O)[C@@H](NC(=O)CNC(=O)[C@H](CCC(N)=O)NC(=O)[C@H](CO)NC(=O)[C@H](CC(C)C)NC(=O)CNC(=O)[C@H](CCCCN)NC(=O)[C@H](CCCCN)NC(=O)[C@H](CCC(N)=O)NC(=O)[C@H](C)NC(=O)CNC(=O)[C@H](CCC(=O)O)NC(=O)[C@H](Cc2ccc(O)cc2)NC(=O)[C@H](CCCCN)NC(=O)[C@H](CCCNC(=N)N)NC(=O)[C@H](C)NC(=O)[C@H](CCC(N)=O)NC(=O)[C@@H]2CCCN2C(=O)[C@H](Cc2c[nH]cn2)NC(=O)[C@H](CCC(=O)O)NC(=O)[C@H](CCC(N)=O)NC(=O)COCCOCCNC(=O)COCCOCCNC(=O)CC[C@H](NC(=O)CC[C@H](NC(=O)CCCCCCCCCCCCCCCCC(=O)O)C(=O)O)C(=O)O)CSSC[C@@H](C(=O)O)NC(=O)CNC(=O)[C@H](CC(C)C)NC(=O)CNC(=O)[C@H](CO)NC(=O)[C@H](CC(C)C)NC(=O)[C@H](CO)NC(=O)CNC1=O [compound 1396] ({C18 diacid-γGlu-γGlu-AEEA-AEEA}-QEHPQARKYEGAQKKGLSQGCFGLPLDRIGSLSGLGC-OH; disulfide 21-37) | 43.1% | –
CC[C@H](C)[C@@H]1NC(=O)[C@H](CCCNC(=N)N)NC(=O)[C@H](CC(=O)O)NC(=O)[C@H](CC(C)C)NC(=O)[C@@H]2CCCN2C(=O)[C@H](CC(C)C)NC(=O)CNC(=O)[C@H](Cc2ccccc2)NC(=O)[C@@H](NC(=O)CNC(=O)[C@H](CCC(N)=O)NC(=O)[C@H](CO)NC(=O)[C@H](CC(C)C)NC(=O)CNC(=O)[C@H](CCCCN)NC(=O)[C@H](CCCCN)NC(=O)[C@H](CCC(N)=O)NC(=O)[C@H](C)NC(=O)CNC(=O)[C@H](CCCCN)NC(=O)[C@H](Cc2ccc(O)cc2)NC(=O)[C@H](CCCCN)NC(=O)[C@H](CCCNC(=N)N)NC(=O)[C@H](C)NC(=O)[C@H](CCC(N)=O)NC(=O)[C@@H]2CCCN2C(=O)[C@H](Cc2c[nH]cn2)NC(=O)[C@H](CCC(=O)O)NC(=O)[C@H](CCC(N)=O)NC(=O)COCCOCCNC(=O)COCCOCCNC(=O)CC[C@H](NC(=O)CC[C@H](NC(=O)CC[C@H](NC(=O)CC[C@H](NC(=O)CC[C@H](NC(=O)CCCCCCCCCCCCCCCCC(=O)O)C(=O)O)C(=O)O)C(=O)O)C(=O)O)C(=O)O)CSSC[C@@H](C(=O)O)NC(=O)CNC(=O)[C@H](CC(C)C)NC(=O)CNC(=O)[C@H](CO)NC(=O)[C@H](CC(C)C)NC(=O)[C@H](CO)NC(=O)CNC1=O [compound 1471] ({C18 diacid-γGlu-γGlu-γGlu-γGlu-γGlu-AEEA-AEEA}-QEHPQARKYKGAQKKGLSQGCFGLPLDRIGSLSGLGC-OH; disulfide 21-37) | 40.2% | –
CC[C@H](C)[C@@H]1NC(=O)[C@H](CCCNC(=N)N)NC(=O)[C@H](CC(=O)O)NC(=O)[C@H](CC(C)C)NC(=O)[C@H](CCCCN)NC(=O)[C@H](CC(C)C)NC(=O)CNC(=O)[C@H](Cc2ccccc2)NC(=O)[C@@H](NC(=O)CNC(=O)[C@H](CCCCN)NC(=O)[C@H](CO)NC(=O)[C@H](CC(C)C)NC(=O)CNC(=O)[C@H](CCCCN)NC(=O)[C@H](CCC(=O)O)NC(=O)[C@H](CCC(N)=O)NC(=O)[C@H](C)NC(=O)CNC(=O)[C@H](CCCCN)NC(=O)[C@H](CCC(=O)O)NC(=O)COCCOCCNC(=O)COCCOCCNC(=O)CC[C@H](NC(=O)CCCCCCCCCCCCCCCCC(=O)O)C(=O)O)CSSC[C@@H](C(=O)O)NC(=O)CNC(=O)[C@H](CC(C)C)NC(=O)CNC(=O)[C@H](CO)NC(=O)[C@H](CC(C)C)NC(=O)[C@H](CO)NC(=O)CNC1=O [compound 1229] ({C18 diacid-γGlu-AEEA-AEEA}-EKGAQEKGLSKGCFGLKLDRIGSLSGLGC-OH; disulfide 13-29) | 5.3% | 4.44 nM
CC[C@H](C)[C@@H]1NC(=O)[C@H](CCCNC(=N)N)NC(=O)[C@H](CCC(=O)O)NC(=O)[C@H](CC(C)C)NC(=O)[C@@H]2CCCN2C(=O)[C@H](CC(C)C)NC(=O)CNC(=O)[C@H](Cc2ccccc2)NC(=O)[C@@H](NC(=O)CNC(=O)[C@H](CO)NC(=O)[C@H](CO)NC(=O)[C@H](CC(C)C)NC(=O)CNC(=O)[C@H](CCCCN)NC(=O)[C@H](CCCCN)NC(=O)[C@H](CCC(N)=O)NC(=O)[C@H](C)NC(=O)CNC(=O)[C@H](CCC(=O)O)NC(=O)[C@H](Cc2ccc(O)cc2)NC(=O)COCCOCCNC(=O)COCCOCCNC(=O)CC[C@H](NC(=O)CCCCCCCCCCCCCCCCC(=O)O)C(=O)O)CSSC[C@@H](C(=O)O)NC(=O)CNC(=O)[C@H](CC(C)C)NC(=O)CNC(=O)[C@H](CO)NC(=O)[C@H](CC(C)C)NC(=O)[C@H](CO)NC(=O)CNC1=O [compound 1338] ({C18 diacid-γGlu-AEEA-AEEA}-YEGAQKKGLSSGCFGLPLERIGSLSGLGC-OH; disulfide 13-29) | 1.3% | 6.77 nM
CC[C@H](C)[C@@H]1NC(=O)[C@H](CCCNC(=N)N)NC(=O)[C@H](CC(=O)O)NC(=O)[C@H](CC(C)C)NC(=O)[C@@H]2CCCN2C(=O)[C@H](CC(C)C)NC(=O)CNC(=O)[C@H](Cc2ccccc2)NC(=O)[C@@H](NC(=O)CNC(=O)[C@H](CCC(N)=O)NC(=O)[C@H](CO)NC(=O)[C@H](CC(C)C)NC(=O)CNC(=O)[C@H](CCCCN)NC(=O)[C@H](CCCCN)NC(=O)[C@H](CCC(N)=O)NC(=O)[C@H](C)NC(=O)CNC(=O)[C@H](CCC(=O)O)NC(=O)[C@H](Cc2ccc(O)cc2)NC(=O)[C@H](CCCCN)NC(=O)[C@H](CCCNC(=N)N)NC(=O)[C@H](C)NC(=O)[C@H](CCC(N)=O)NC(=O)[C@@H]2CCCN2C(=O)[C@H](Cc2c[nH]cn2)NC(=O)[C@H](CCC(=O)O)NC(=O)[C@H](CCC(N)=O)NC(=O)COCCOCCNC(=O)COCCOCCNC(=O)CC[C@H](NC(=O)CCCCCCCCCCCCCCCCC(=O)O)C(=O)O)CSSC[C@@H](C(=O)O)NC(=O)CNC(=O)[C@H](CC(C)C)NC(=O)CNC(=O)[C@H](CO)NC(=O)[C@H](CC(C)C)NC(=O)[C@H](CO)NC(=O)CNC1=O [compound 1394] ({C18 diacid-γGlu-AEEA-AEEA}-QEHPQARKYEGAQKKGLSQGCFGLPLDRIGSLSGLGC-OH; disulfide 21-37) | 93.9% | –
CC[C@H](C)[C@@H]1NC(=O)[C@H](CCCNC(=N)N)NC(=O)[C@H](CC(=O)O)NC(=O)[C@H](CC(C)C)NC(=O)[C@H](CCCCN)NC(=O)[C@H](CC(C)C)NC(=O)CNC(=O)[C@H](Cc2ccccc2)NC(=O)[C@@H](NC(=O)CNC(=O)[C@H](CCCCN)NC(=O)[C@H](CO)NC(=O)[C@H](CC(C)C)NC(=O)CNC(=O)[C@H](CCCCN)NC(=O)[C@H](CCCCN)NC(=O)[C@H](CCC(N)=O)NC(=O)[C@H](C)NC(=O)CNC(=O)[C@H](CCCCN)NC(=O)[C@H](Cc2ccc(O)cc2)NC(=O)[C@H](CCCCN)NC(=O)[C@H](CCCNC(=N)N)NC(=O)[C@H](C)NC(=O)[C@H](CCC(N)=O)NC(=O)[C@@H]2CCCN2C(=O)[C@H](Cc2c[nH]cn2)NC(=O)[C@H](CCC(=O)O)NC(=O)[C@H](CCC(N)=O)NC(=O)COCCOCCNC(=O)COCCOCCNC(=O)CC[C@H](NC(=O)CC[C@H](NC(=O)CC[C@H](NC(=O)CC[C@H](NC(=O)CC[C@H](NC(=O)CC[C@H](NC(=O)CC[C@H](NC(=O)CC[C@H](NC(=O)CCCCCCCCCCCCCCCCC(=O)O)C(=O)O)C(=O)O)C(=O)O)C(=O)O)C(=O)O)C(=O)O)C(=O)O)C(=O)O)CSSC[C@@H](C(=O)O)NC(=O)CNC(=O)[C@H](CC(C)C)NC(=O)CNC(=O)[C@H](CO)NC(=O)[C@H](CC(C)C)NC(=O)[C@H](CO)NC(=O)CNC1=O [compound 1401] | 19.7% | 0.56 nM
